Calls of active or inactive are those of the source. No cut-off for these calls is given here.
Assays:
SW-620 [1] = experiment: Growth inhibition against human SW620 cells assessed as lethal concentration incubated for 48 hrs by sulforhodamine B spectrophotometric assay; type: functional; conditions: read-out: LC50 (the source's name)
CAKI-1 = experiment: Growth inhibition against human CAKI-1 cells assessed as total growth inhibitory concentration incubated for 48 hrs by sulforhodamine B spectrophotometric assay; type: functional
KM12 [2] = experiment: Growth inhibition against human KM12 cells assessed as lethal concentration incubated for 48 hrs by sulforhodamine B spectrophotometric assay; type: functional; conditions: read-out: LC50 (the source's name)
OVCAR-4 [3] = experiment: Growth inhibition of human OVCAR-4 cells incubated for 48 hrs by sulforhodamine B spectrophotometric assay; type: functional
MDA-MB-468 = experiment: Growth inhibition against human MDA-MB-468 cells assessed as lethal concentration incubated for 48 hrs by sulforhodamine B spectrophotometric assay; type: functional; conditions: read-out: LC50 (the source's name)
MDA-MB-231 [4] = experiment: Induction of mitochondrial membrane potential loss in human MDA-MB-231 cells at 5 uM incubated for 24 hrs by JC-1 staining based flow cytometry analysis; type: functional
U-251 = experiment: Growth inhibition against human U-251 cells assessed as total growth inhibitory concentration incubated for 48 hrs by sulforhodamine B spectrophotometric assay; type: functional
SF-539 = experiment: Growth inhibition against human SF-539 cells assessed as lethal concentration incubated for 48 hrs by sulforhodamine B spectrophotometric assay; type: functional; conditions: read-out: LC50 (the source's name)
Salmon testes DNA = experiment: Displacement of methyl green from salmon sperm DNA assessed as DNA intercalation at 10 uM incubated for 24 hrs by fluorescence plate reader method relative to control; type: nucleic-acid assay; conditions: Salmo salar
HCC 2998 = experiment: Growth inhibition against human HCC 2998 cells assessed as lethal concentration incubated for 48 hrs by sulforhodamine B spectrophotometric assay; type: functional; conditions: read-out: LC50 (the source's name)
KB 3-1 [5] = experiment: Induction of apoptosis in human KB 3-1 cells assessed as increase in calnexin protein expression at 0.5 to 5 uM incubated for 3 hrs by Western blotting assay; type: functional, cell-based; conditions: dose 0.5-5 µM
MDA-MB-231 [6] = experiment: Induction of apoptosis in human MDA-MB-231 cells assessed as increase in caspase-8 level at 10 uM incubated for 24 hrs by flow cytometry analysis; type: functional
SF-295 [7] = experiment: Growth inhibition of human SF-295 cells incubated for 48 hrs by sulforhodamine B spectrophotometric assay; type: functional
MDA-MB-231 [8] = experiment: Growth inhibition against human MDA-MB-231 cells assessed as lethal concentration incubated for 48 hrs by sulforhodamine B spectrophotometric assay; type: functional; conditions: read-out: LC50 (the source's name)
SF-295 [9] = experiment: Growth inhibition against human SF-295 cells assessed as total growth inhibitory concentration incubated for 48 hrs by sulforhodamine B spectrophotometric assay; type: functional
CCRF-CEM [10] = experiment: Growth inhibition against human CCRF-CEM cells assessed as total growth inhibitory concentration incubated for 48 hrs by sulforhodamine B spectrophotometric assay; type: functional
T47D = experiment: Growth inhibition against human T47D cells assessed as total growth inhibitory concentration incubated for 48 hrs by sulforhodamine B spectrophotometric assay; type: functional
HCT-116 [11] = experiment: Growth inhibition against human HCT-116 cells assessed as lethal concentration incubated for 48 hrs by sulforhodamine B spectrophotometric assay; type: functional; conditions: read-out: LC50 (the source's name)
CCRF-CEM [12] = experiment: Induction of cell cycle arrest in human CCRF-CEM cells assessed as RNA synthesis at 20.7 uM incubated for 3 hrs by […] incorporation based flow cytometry analysis (reference value: 31.8 +/- 1.17%); type: functional
COLO 205 = experiment: Growth inhibition against human COLO 205 cells assessed as total growth inhibitory concentration incubated for 48 hrs by sulforhodamine B spectrophotometric assay; type: functional
HCT-15 = experiment: Growth inhibition against human HCT-15 cells assessed as total growth inhibitory concentration incubated for 48 hrs by sulforhodamine B spectrophotometric assay; type: functional
Malme-3M = experiment: Growth inhibition against human Malme-3M cells assessed as lethal concentration incubated for 48 hrs by sulforhodamine B spectrophotometric assay; type: functional; conditions: read-out: LC50 (the source's name)
TK-10 = experiment: Growth inhibition of human TK-10 cells incubated for 48 hrs by sulforhodamine B spectrophotometric assay; type: functional
NCI-H226 = experiment: Growth inhibition against human NCI-H226 cells assessed as total growth inhibitory concentration incubated for 48 hrs by sulforhodamine B spectrophotometric assay; type: functional
HCT-116 [13] = experiment: Growth inhibition of human HCT-116 cells incubated for 48 hrs by sulforhodamine B spectrophotometric assay; type: functional
KM12 [14] = experiment: Growth inhibition against human KM12 cells assessed as total growth inhibitory concentration incubated for 48 hrs by sulforhodamine B spectrophotometric assay; type: functional
HCT-116 [15] = experiment: Cytotoxicity against human HCT-116 cells assessed as cell growth inhibition incubated for 72 hrs by MTT assay; type: functional, cell-based; conditions: HCT-116, 72 h
CCRF-CEM [16] = experiment: Induction of cell cycle arrest in human CCRF-CEM cells assessed as accumulation of cells at M phase at 4.14 uM incubated for 24 hrs by propidium iodide staining based flow cytometry analysis (reference value: 1.97 +/- 0.042%); type: functional
MDA-MB-231 [17] = experiment: Induction of mitochondrial membrane potential loss in human MDA-MB-231 cells at 10 uM incubated for 24 hrs by JC-1 staining based flow cytometry analysis; type: functional
A498 [18] = experiment: Growth inhibition of human A498 cells incubated for 48 hrs by sulforhodamine B spectrophotometric assay; type: functional
KB 3-1 [19] = experiment: Induction of apoptosis in human KB 3-1 cells assessed as increase in BIP protein expression incubated for 24 hrs by Western blotting assay; type: functional, cell-based
OVCAR-4 [20] = experiment: Growth inhibition against human OVCAR-4 cells assessed as total growth inhibitory concentration incubated for 48 hrs by sulforhodamine B spectrophotometric assay; type: functional
CCRF-CEM [21] = experiment: Induction of cell cycle arrest in human CCRF-CEM cells assessed as DNA synthesis at 20.7 uM incubated for 2.5 hrs by BrdU incorporation based flow cytometry analysis (reference value: 42.4 +/- 0.66%); type: functional
BT-549 = experiment: Growth inhibition against human BT-549 cells assessed as total growth inhibitory concentration incubated for 48 hrs by sulforhodamine B spectrophotometric assay; type: functional
SW-620 [22] = experiment: Growth inhibition against human SW620 cells assessed as total growth inhibitory concentration incubated for 48 hrs by sulforhodamine B spectrophotometric assay; type: functional
MDA-MB-231 [23] = experiment: Induction of apoptosis in human MDA-MB-231 cells at 5 uM incubated for 24 hrs by Annexin-V-FITC/propidium iodide staining based flow cytometry analysis (reference value: 8.9%); type: functional
SK-MEL-2 = experiment: Growth inhibition against human SK-MEL-2 cells assessed as lethal concentration incubated for 48 hrs by sulforhodamine B spectrophotometric assay; type: functional; conditions: read-out: LC50 (the source's name)
RXF 393 = experiment: Growth inhibition against human RXF 393 cells assessed as lethal concentration incubated for 48 hrs by sulforhodamine B spectrophotometric assay; type: functional; conditions: read-out: LC50 (the source's name)
[24] = GSH reactivity of compound at pH 7.4 phosphate buffer assessed as GSH-adduct formation at 1 mM incubated for 1 hr in presence of sodium borohydride by spectrophotometric analysis; type: physicochemical; conditions: pH 7.4, 1 h, 1000 µM
M14 = experiment: Growth inhibition against human M14 cells assessed as lethal concentration incubated for 48 hrs by sulforhodamine B spectrophotometric assay; type: functional; conditions: read-out: LC50 (the source's name)
K562 = experiment: Growth inhibition against human K562 cells assessed as lethal concentration incubated for 48 hrs by sulforhodamine B spectrophotometric assay; type: functional; conditions: read-out: LC50 (the source's name)
A498 [25] = experiment: Growth inhibition against human A498 cells assessed as total growth inhibitory concentration incubated for 48 hrs by sulforhodamine B spectrophotometric assay; type: functional
SK-MEL-28 = experiment: Growth inhibition of human SK-MEL-28 cells incubated for 48 hrs by sulforhodamine B spectrophotometric assay; type: functional

## O=C1C2=C(C(=O)c3c(O)cccc31)C(c1ccco1)c1sc(=O)[nH]c1S2 (stereo not drawn)
SW-620 [1]
  CC50: 52.7 µM
CAKI-1
  TGI: 13.9 µM
KM12 [2]
  CC50: > 100 µM
OVCAR-4 [3]
  GI50: 1.79 µM
MDA-MB-468
  CC50: > 100 µM
MDA-MB-231 [4]
  Activity: 15.7%
U-251
  TGI: 10.1 µM
SF-539
  CC50: 7.05 µM
Salmon testes DNA
  Activity: 44.3%
HCC 2998
  CC50: 18.4 µM
KB 3-1 [5]
  Activity: inactive
MDA-MB-231 [6]
  Activity: 62.7%
SF-295 [7]
  GI50: 1.98 µM
MDA-MB-231 [8]
  CC50: > 100 µM
SF-295 [9]
  TGI: 3.59 µM
CCRF-CEM [10]
  TGI: > 100 µM
T47D
  TGI: 13 µM
HCT-116 [11]
  CC50: > 100 µM
CCRF-CEM [12]
  Activity: 0.07%
COLO 205
  TGI: 3.61 µM
HCT-15
  TGI: 3.88 µM
Malme-3M
  CC50: 4.75 µM
TK-10
  GI50: 12.3 µM
NCI-H226
  TGI: 5.46 µM
HCT-116 [13]
  GI50: 2.37 µM
KM12 [14]
  TGI: 31.3 µM
HCT-116 [15]
  IC50: 0.6 µM
CCRF-CEM [16]
  Activity: 1.25%
MDA-MB-231 [17]
  Activity: 37.3%
A498 [18]
  GI50: 3.48 µM
KB 3-1 [19]
  Activity: Dose-Dependent Effect
OVCAR-4 [20]
  TGI: 3.95 µM
CCRF-CEM [21]
  Activity: 0.9%
BT-549
  TGI: 3.19 µM
SW-620 [22]
  TGI: 10.5 µM
MDA-MB-231 [23]
  Activity: 11.7%
SK-MEL-2
  CC50: 52.9 µM
RXF 393
  CC50: 20.1 µM
[24]
  Activity: Active
M14
  CC50: 5.26 µM
K562
  CC50: > 100 µM
A498 [25]
  TGI: 9.69 µM
SK-MEL-28
  GI50: 1.87 µM

Reference: ChEMBL document CHEMBL5360558, “Molecular design, synthesis and anticancer activity of new thiopyrano[2,3-d]thiazoles based on 5-hydroxy-1,4-naphthoquinone (juglone)” (Eur J Med Chem, 2023)
